Source: ChEMBL document CHEMBL3885861, “Open TG-GATES”

Species on record: Rattus norvegicus
Test: Open TG-GATES - Regimen: Daily Repeat
Type: toxicity, organism-based, Sprague-Dawley
Set-up: regimen Daily Repeat, gender Male, age 6 weeks
Conditions: in vivo, po, 0 mg/kg, route gavage, dose level Control; for APTT / Bas / Eos / Fbg / Hb / Ht / Lym / MCH / MCHC / MCV / Mono / Neu / PT / Plat / RBC / Ret / WBC: tissue Blood; for KIDNEY_L / KIDNEY_R / KIDNEY_TOTAL: tissue Kidney; for LIVER: tissue Liver; for A/G / ALP / ALT / AST / BUN / CRE / Ca / Cl / DBIL / GLC / IP / K / LDH / Na / PL / RALB / TBIL / TC / TG / TP / gamma-GTP: tissue Plasma

`OCCOCCN1CCN(C(c2ccccc2)c2ccc(Cl)cc2)CC1` (configuration not stated) [HYDROXYZINE] was tested, and the TERMINAL_BW (72 h, time 3 day) was 230.9 g, the APTT (72 h, time 3 day) was 15.5 s and the Bas (72 h, time 3 day) was 0%. For the same compound, the Eos (72 h, time 3 day) was 1%, the Fbg (72 h, time 3 day) was 263.6 mg/dL and the Hb (72 h, time 3 day) was 12.9 g/dL. For the same compound, the Ht (72 h, time 3 day) was 39%, the Lym (72 h, time 3 day) was 74.6% and the MCH (72 h, time 3 day) was 21.1 pg. The MCHC (72 h, time 3 day) was 33.1%, the MCV (72 h, time 3 day) was 63.9 fL and the Mono (72 h, time 3 day) was 3.2%. For the same compound, the Neu (72 h, time 3 day) was 20.6%, the PT (72 h, time 3 day) was 15.7 s and the Plat (72 h, time 3 day) was 117.4 x10_4/uL. The RBC (72 h, time 3 day) was 610.4 x10_4/ul, the Ret (72 h, time 3 day) was 7.5% and the WBC (72 h, time 3 day) was 77.5 x10_2/uL. For the same compound, the KIDNEY_L (72 h, time 3 day) was 1 g, the KIDNEY_R (72 h, time 3 day) was 1 g and the KIDNEY_TOTAL (72 h, time 3 day) was 1.9 g. The LIVER (72 h, time 3 day) was 11.1 g, the A/G (72 h, time 3 day) was 0.9 and the ALP (72 h, time 3 day) was 1652.8 IU/L. The ALT (72 h, time 3 day) was 46.2 IU/L, the AST (72 h, time 3 day) was 68.8 IU/L and the BUN (72 h, time 3 day) was 16.2 mg/dL. For the same compound, the CRE (72 h, time 3 day) was 0.2 mg/dL, the Ca (72 h, time 3 day) was 10.9 mg/dL and the Cl (72 h, time 3 day) was 105.8 meq/L. The DBIL (72 h, time 3 day) was 0.012 mg/dL, the GLC (72 h, time 3 day) was 186.8 mg/dL and the IP (72 h, time 3 day) was 8.1 mg/dL. It also gave a K (72 h, time 3 day) of 4 meq/L, an LDH (72 h, time 3 day) of 91.8 IU/L and a Na (72 h, time 3 day) of 143.2 meq/L. For the same compound, the PL (72 h, time 3 day) was 148.4 mg/dL, the RALB (72 h, time 3 day) was 2.7 g/dL and the TBIL (72 h, time 3 day) was 0.052 mg/dL. It also gave a TC (72 h, time 3 day) of 73 mg/dL, a TG (72 h, time 3 day) of 90 mg/dL and a TP (72 h, time 3 day) of 5.7 g/dL. It also gave a gamma-GTP (72 h, time 3 day) of 0.8 IU/L, a TERMINAL_BW ([…], time 7 day) of 263.6 g and a TERMINAL_BW ([…], time 14 day) of 336.5 g. It also gave a TERMINAL_BW ([…], time 28 day) of 390.2 g, an APTT ([…], time 7 day) of 16.8 s and a Bas ([…], time 7 day) of 0%. It also gave an Eos ([…], time 7 day) of 1%, a Fbg ([…], time 7 day) of 282.2 mg/dL and a Hb ([…], time 7 day) of 13.6 g/dL. The Ht ([…], time 7 day) was 40.9%, the Lym ([…], time 7 day) was 79.2% and the MCH ([…], time 7 day) was 21.3 pg. It also gave an MCHC ([…], time 7 day) of 33.3%, an MCV ([…], time 7 day) of 63.9 fL and a Mono ([…], time 7 day) of 2.4%. It also gave a Neu ([…], time 7 day) of 16.4%, a PT ([…], time 7 day) of 15.4 s and a Plat ([…], time 7 day) of 113.3 x10_4/uL. The RBC ([…], time 7 day) was 639.4 x10_4/ul, the Ret ([…], time 7 day) was 6.1% and the WBC ([…], time 7 day) was 82.1 x10_2/uL. It also gave an APTT ([…], time 14 day) of 16.9 s, a Bas ([…], time 14 day) of 0% and an Eos ([…], time 14 day) of 1%. The Fbg ([…], time 14 day) was 292 mg/dL, the Hb ([…], time 14 day) was 14.1 g/dL and the Ht ([…], time 14 day) was 41.5%. It also gave a Lym ([…], time 14 day) of 75.4%, an MCH ([…], time 14 day) of 20.7 pg and an MCHC ([…], time 14 day) of 34%. The MCV ([…], time 14 day) was 60.9 fL, the Mono ([…], time 14 day) was 2.8% and the Neu ([…], time 14 day) was 20.2%. It also gave a PT ([…], time 14 day) of 15.5 s, a Plat ([…], time 14 day) of 116.6 x10_4/uL and an RBC ([…], time 14 day) of 682.2 x10_4/ul. The Ret ([…], time 14 day) was 4.8%, the WBC ([…], time 14 day) was 105.1 x10_2/uL and the APTT ([…], time 28 day) was 26.6 s. It also gave a Bas ([…], time 28 day) of 0.2%, an Eos ([…], time 28 day) of 1.2% and a Fbg ([…], time 28 day) of 295.8 mg/dL. For the same compound, the Hb ([…], time 28 day) was 15.1 g/dL, the Ht ([…], time 28 day) was 43.4% and the Lym ([…], time 28 day) was 79.6%. For the same compound, the MCH ([…], time 28 day) was 19.7 pg, the MCHC ([…], time 28 day) was 34.7% and the MCV ([…], time 28 day) was 56.7 fL. The Mono ([…], time 28 day) was 2%, the Neu ([…], time 28 day) was 16.4% and the PT ([…], time 28 day) was 15.9 s. For the same compound, the Plat ([…], time 28 day) was 105.6 x10_4/uL, the RBC ([…], time 28 day) was 766.4 x10_4/ul and the Ret ([…], time 28 day) was 2.4%. For the same compound, the WBC ([…], time 28 day) was 99.9 x10_2/uL, the KIDNEY_L ([…], time 7 day) was 1.1 g and the KIDNEY_R ([…], time 7 day) was 1.1 g. For the same compound, the KIDNEY_TOTAL ([…], time 7 day) was 2.3 g, the KIDNEY_L ([…], time 14 day) was 1.3 g and the KIDNEY_R ([…], time 14 day) was 1.3 g. It also gave a KIDNEY_TOTAL ([…], time 14 day) of 2.7 g, a KIDNEY_L ([…], time 28 day) of 1.4 g and a KIDNEY_R ([…], time 28 day) of 1.3 g. For the same compound, the KIDNEY_TOTAL ([…], time 28 day) was 2.8 g, the LIVER ([…], time 7 day) was 12.4 g and the LIVER ([…], time 14 day) was 15.4 g. For the same compound, the LIVER ([…], time 28 day) was 16.2 g, the A/G ([…], time 7 day) was 0.8 and the ALP ([…], time 7 day) was 1624.6 IU/L. The ALT ([…], time 7 day) was 41.6 IU/L, the AST ([…], time 7 day) was 68.4 IU/L and the BUN ([…], time 7 day) was 16.6 mg/dL. It also gave a CRE ([…], time 7 day) of 0.2 mg/dL, a Ca ([…], time 7 day) of 11 mg/dL and a Cl ([…], time 7 day) of 105.2 meq/L. The DBIL ([…], time 7 day) was 0.016 mg/dL, the GLC ([…], time 7 day) was 193 mg/dL and the IP ([…], time 7 day) was 8 mg/dL. For the same compound, the K ([…], time 7 day) was 4 meq/L, the LDH ([…], time 7 day) was 68.4 IU/L and the Na ([…], time 7 day) was 143.2 meq/L. For the same compound, the PL ([…], time 7 day) was 166.6 mg/dL, the RALB ([…], time 7 day) was 2.7 g/dL and the TBIL ([…], time 7 day) was 0.054 mg/dL. The TC ([…], time 7 day) was 84 mg/dL, the TG ([…], time 7 day) was 103 mg/dL and the TP ([…], time 7 day) was 5.8 g/dL. For the same compound, the gamma-GTP ([…], time 7 day) was 0.8 IU/L, the A/G ([…], time 14 day) was 0.8 and the ALP ([…], time 14 day) was 1450 IU/L. The ALT ([…], time 14 day) was 40.6 IU/L, the AST ([…], time 14 day) was 62.6 IU/L and the BUN ([…], time 14 day) was 16.2 mg/dL. It also gave a CRE ([…], time 14 day) of 0.2 mg/dL, a Ca ([…], time 14 day) of 10.6 mg/dL and a Cl ([…], time 14 day) of 103.8 meq/L. The DBIL ([…], time 14 day) was 0.02 mg/dL, the GLC ([…], time 14 day) was 190.2 mg/dL and the IP ([…], time 14 day) was 7.4 mg/dL. It also gave a K ([…], time 14 day) of 4 meq/L, an LDH ([…], time 14 day) of 94.6 IU/L and a Na ([…], time 14 day) of 141.8 meq/L. The PL ([…], time 14 day) was 151.2 mg/dL, the RALB ([…], time 14 day) was 2.7 g/dL and the TBIL ([…], time 14 day) was 0.056 mg/dL. The TC ([…], time 14 day) was 73 mg/dL, the TG ([…], time 14 day) was 126.4 mg/dL and the TP ([…], time 14 day) was 6.1 g/dL. The gamma-GTP ([…], time 14 day) was 0.6 IU/L, the A/G ([…], time 28 day) was 0.8 and the ALP ([…], time 28 day) was 992.6 IU/L. It also gave an ALT ([…], time 28 day) of 36 IU/L, an AST ([…], time 28 day) of 61.2 IU/L and a BUN ([…], time 28 day) of 16.8 mg/dL. It also gave a CRE ([…], time 28 day) of 0.2 mg/dL, a Ca ([…], time 28 day) of 10.6 mg/dL and a Cl ([…], time 28 day) of 106 meq/L. It also gave a DBIL ([…], time 28 day) of 0.016 mg/dL, a GLC ([…], time 28 day) of 186.6 mg/dL and an IP ([…], time 28 day) of 6.6 mg/dL. The K ([…], time 28 day) was 4.1 meq/L, the LDH ([…], time 28 day) was 118.8 IU/L and the Na ([…], time 28 day) was 142.8 meq/L. It also gave a PL ([…], time 28 day) of 149.2 mg/dL, an RALB ([…], time 28 day) of 2.8 g/dL and a TBIL ([…], time 28 day) of 0.052 mg/dL. It also gave a TC ([…], time 28 day) of 68.2 mg/dL, a TG ([…], time 28 day) of 161.2 mg/dL and a TP ([…], time 28 day) of 6.3 g/dL. The gamma-GTP ([…], time 28 day) was 0.4 IU/L.
